In patent US10898613B2, “Hyaluronic acid gel with a divalent zinc cation” (Nestlé Skin Health SA, priority 2016, dated 2021):

Columns and labels:
[1] = Rheology (elastic modulus G′ within the LVR) of HA gel formulations after autoclaving; type: physicochemical; conditions: after autoclaving (F0~19); 1 mM Zn salt, HA 20 mg/mL
Description: The rheological properties of the formulations were analyzed using an Ahres G2 reometer (measure system PP 40, gap 1.00 mm). Initially a strain sweep was made to find the linear viscoelastic region (LVR) and then the viscoelastic properties were measured within the LVR.

[2] = Zinc release from gels, USP-paddle apparatus with gel containers, Zn content by ICP; type: physicochemical; conditions: zinc released from HA gels of Example 4 with 1 mM zinc salt; 600 ml release medium, 30 rpm, 37° C.
Description: The zinc release from the gels was measured by the USP-paddle apparatus using special gel containers in which the gel was placed. A gel containing 1 mM ZnCl2 was manufactured according to Example 1. The gel was filled into 7 gel containers with a fixed volume of 1 ml. The geometry of the filled gel was a cylinder […] in diameter and 3 mm deep. The gels were covered by a mesh-size plastic net (PA80 m=200 mesh, AB Derma) and a coarse stainless steel net, care was taken to assure that no air was trapped between the gel and the plastic net.
Each gel container was immersed in 600 ml thermostated release medium, stirred at 30 rpm and maintained at 37° C. using a Distek Evolution 6100 (North Brunswick, N.J.). At predetermined time points, gel containers were removed and the Zn content in the container was determined using ICP.
Gels prepared according to example 4 containing zinc chloride (1 mM), zinc gluconate (1 mM) and zinc citrate (1 mM) respectively were analyzed as described in Example 7.

Row | Compound | Effect of Zn on G′ of the gel versus reference swelled in buffer only [1] | time for 25% released [2] [h]
1 | [Cl-].[Cl-].[Zn+2] [zinc chloride] | stabilizing effect | ~75
2 | O=C([O-])CC(O)(CC(=O)[O-])C(=O)[O-].O=C([O-])CC(O)(CC(=O)[O-])C(=O)[O-].[Zn+2].[Zn+2].[Zn+2] [zinc citrate] | stabilizing effect | ~3
3 | zinc gluconate | stabilizing effect | ~24
